Measurements published in ChEMBL document CHEMBL3879907, “8-azabicyclo[3.2.1]octane compounds as mu opioid receptor antagonists” (2014).

Assays:
[1] = biological target: Delta-type opioid receptor (Homo sapiens, UniProt P41143); test: Displacement of [3H]-diprenorphine from human delta opioid receptor expressed in cell membranes
[2] = biological target: Kappa-type opioid receptor (Cavia porcellus, UniProt P41144); test: Displacement of [3H]-diprenorphine from guinea pig kappa opioid receptor expressed in CHOK1 cell membranes; settings: cho-k1
Sequence of Kappa-type opioid receptor (P41144 whole entry): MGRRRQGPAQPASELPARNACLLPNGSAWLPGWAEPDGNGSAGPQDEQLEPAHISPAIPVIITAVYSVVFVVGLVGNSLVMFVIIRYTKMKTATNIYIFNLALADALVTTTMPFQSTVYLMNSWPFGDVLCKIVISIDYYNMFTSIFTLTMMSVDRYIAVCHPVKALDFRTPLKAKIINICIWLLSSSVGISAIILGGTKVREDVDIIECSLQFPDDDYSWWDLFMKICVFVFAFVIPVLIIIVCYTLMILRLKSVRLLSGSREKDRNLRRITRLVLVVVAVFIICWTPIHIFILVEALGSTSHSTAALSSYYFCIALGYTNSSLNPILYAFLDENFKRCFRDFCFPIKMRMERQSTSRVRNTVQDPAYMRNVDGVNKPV

[3] = biological target: Mu-type opioid receptor (Homo sapiens) (UniProt P35372); test: Intrinsic activity at human mu opioid receptor expressed in CHOK1 cell membranes at 0.00001 to 20 uM after 30 mins by GTP-Eu nucleotide exchange assay relative to DAMGO; assay type: functional; settings: CHO-K1
Sequence of Mu-type opioid receptor (Homo sapiens) (P35372 whole entry): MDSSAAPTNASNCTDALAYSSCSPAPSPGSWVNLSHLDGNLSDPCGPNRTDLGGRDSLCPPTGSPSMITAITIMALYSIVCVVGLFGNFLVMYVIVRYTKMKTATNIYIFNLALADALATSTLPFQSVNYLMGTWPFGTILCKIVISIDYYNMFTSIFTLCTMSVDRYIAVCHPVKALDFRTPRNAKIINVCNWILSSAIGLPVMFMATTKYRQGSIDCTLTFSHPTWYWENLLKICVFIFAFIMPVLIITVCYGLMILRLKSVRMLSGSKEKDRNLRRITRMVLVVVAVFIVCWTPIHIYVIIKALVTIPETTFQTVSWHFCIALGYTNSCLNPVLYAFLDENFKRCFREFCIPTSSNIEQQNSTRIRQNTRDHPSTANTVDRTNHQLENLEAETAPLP

Sequence of Delta-type opioid receptor (P41143 whole entry): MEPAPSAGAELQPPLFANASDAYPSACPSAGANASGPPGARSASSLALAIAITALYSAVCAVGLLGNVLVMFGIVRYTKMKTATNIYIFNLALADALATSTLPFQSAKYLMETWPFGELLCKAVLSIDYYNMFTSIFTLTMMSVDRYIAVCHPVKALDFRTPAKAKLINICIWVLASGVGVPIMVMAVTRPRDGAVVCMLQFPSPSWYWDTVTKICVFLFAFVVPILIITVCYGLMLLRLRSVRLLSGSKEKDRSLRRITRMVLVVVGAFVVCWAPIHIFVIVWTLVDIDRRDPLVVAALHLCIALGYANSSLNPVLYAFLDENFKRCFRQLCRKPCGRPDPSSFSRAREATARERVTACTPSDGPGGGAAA

Row | Structure (SMILES) | pKi [1] | pKi [2] | Intrinsic activity [3] [%]
1 | CN(C)[C@@H](Cc1ccccc1)C(=O)N(CCN1[C@@H]2CC[C@H]1C[C@@H](c1cccc(O)c1)C2)CC1CCCCC1 | 7 to 10.5 | 7 to 10.5 | < 40
2 | C[C@H](CN1[C@@H]2CC[C@H]1C[C@@H](c1cccc(O)c1)C2)N(Cc1ccccc1)C(=O)CC1CCCC1 | 7 to 10.5 | 7 to 10.5 | < 40
3 | CS(=O)(=O)CC(=O)N(CCN1[C@@H]2CC[C@H]1C[C@@H](c1cccc(C(N)=O)c1)C2)CC1CCCC1.O=C(O)C(F)(F)F | 7 to 10.5 | 7 to 10.5 | < 40
4 | O=C(O)CC1(CC(=O)N(CCN2[C@@H]3CC[C@H]2C[C@@H](c2cccc(O)c2)C3)CC2CCCCC2)CCCCC1 | 7 to 10.5 | 7 to 10.5 | < 40
5 | COCC(=O)N(CCN1[C@@H]2CC[C@H]1C[C@@H](c1cccc(C(N)=O)c1)C2)CC1CCCCC1.O=C(O)C(F)(F)F | 7 to 10.5 | 7 to 10.5 | < 40
6 | O=C([C@@H](O)C1CCCCC1)N(CCN1[C@@H]2CC[C@H]1C[C@@H](c1cccc(O)c1)C2)CC1CCCCC1 | 7 to 10.5 | 7 to 10.5 | < 40
7 | CC(C)(O)C(=O)N(CCCN1[C@@H]2CC[C@H]1C[C@@H](c1cccc(C(N)=O)c1)C2)Cc1ccccc1.O=C(O)C(F)(F)F | 7 to 10.5 | 7 to 10.5 | < 40
8 | CC(C)C[C@H](O)C(=O)N(CCN1[C@@H]2CC[C@H]1C[C@@H](c1cccc(O)c1)C2)CC1CCCCC1 | 7 to 10.5 | 7 to 10.5 | < 40
9 | CC(C)CC(=O)N(CCN1[C@@H]2CC[C@H]1C[C@@H](c1cccc(O)c1)C2)CC1CCCCC1 | 7 to 10.5 | 7 to 10.5 | < 40
10 | C[C@H](O)C(=O)N(CCN1[C@@H]2CC[C@H]1C[C@@H](c1cccc(C(N)=O)c1)C2)CC1CCC(F)(F)CC1.O=C(O)C(F)(F)F | 7 to 10.5 | 7 to 10.5 | < 40
11 | CS(=O)(=O)CC(=O)N(CCCN1[C@@H]2CC[C@H]1C[C@@H](c1cccc(C(N)=O)c1)C2)CC1CCCCC1 | 7 to 10.5 | 7 to 10.5 | < 40
12 | CC1(C)C(CN(CCN2[C@@H]3CC[C@H]2C[C@@H](c2cccc(C(N)=O)c2)C3)C(=O)CO)C1(C)C | 7 to 10.5 | 7 to 10.5 | < 40
13 | CS(=O)(=O)N(CCN1[C@@H]2CC[C@H]1C[C@@H](c1cccc(C(N)=O)c1)C2)Cc1c(F)cccc1F.O=C(O)C(F)(F)F | 7 to 10.5 | 7 to 10.5 | < 40
14 | CC(C)C[C@H](O)C(=O)N(CCN1[C@@H]2CC[C@H]1C[C@@H](c1cccc(C(N)=O)c1)C2)CC1CCCCC1 | 7 to 10.5 | 7 to 10.5 | < 40
15 | CS(=O)(=O)CC(=O)N(CCN1[C@@H]2CC[C@H]1C[C@@H](c1cccc(C(N)=O)c1)C2)Cc1ccc(C(F)(F)F)cc1.O=C(O)C(F)(F)F | 7 to 10.5 | 7 to 10.5 | < 40
16 | NC(=O)c1cccc([C@H]2C[C@H]3CC[C@@H](C2)N3CCN(CC2CCCC2)C(=O)CCO)c1.O=C(O)C(F)(F)F | 7 to 10.5 | 7 to 10.5 | < 40
17 | CC(C)(C(=O)N(CCN1[C@@H]2CC[C@H]1C[C@@H](c1cccc(C(N)=O)c1)C2)CC1CCC1)S(C)(=O)=O.O=C(O)C(F)(F)F | 7 to 10.5 | 7 to 10.5 | < 40
18 | NC(=O)c1cccc([C@H]2C[C@H]3CC[C@@H](C2)N3CCN(CCc2ccc(O)cc2)C(=O)CO)c1.O=C(O)C(F)(F)F | 7 to 10.5 | 7 to 10.5 | < 40
19 | CC(=O)N(CCN1[C@@H]2CC[C@H]1C[C@@H](c1cccc(O)c1)C2)Cc1c(F)cccc1F | 7 to 10.5 | 7 to 10.5 | < 40
20 | CS(=O)(=O)CC(=O)N(CCN1[C@@H]2CC[C@H]1C[C@@H](c1cccc(C(N)=O)c1)C2)Cc1cccc(F)c1.O=C(O)C(F)(F)F | 7 to 10.5 | 7 to 10.5 | < 40
21 | CCN(CC)CC[C@H](O)C(=O)N(CCN1[C@@H]2CC[C@H]1C[C@@H](c1cccc(C(N)=O)c1)C2)CC1CCCCC1 | 7 to 10.5 | 7 to 10.5 | < 40
22 | CC(C)(CO)C(=O)N(CCN1[C@@H]2CC[C@H]1C[C@@H](c1cccc(C(N)=O)c1)C2)Cc1ccccc1.O=C(O)C(F)(F)F | 7 to 10.5 | 7 to 10.5 | < 40
23 | COc1ccc(NC(=O)N(CCN2[C@@H]3CC[C@H]2C[C@@H](c2cccc(O)c2)C3)CC2CCCCC2)cc1OC | 7 to 10.5 | 7 to 10.5 | < 40
24 | NC(=O)c1cccc([C@H]2C[C@H]3CC[C@@H](C2)N3CCN(CCc2ccc(F)cc2)C(=O)CO)c1.O=C(O)C(F)(F)F | 7 to 10.5 | 7 to 10.5 | < 40
25 | CCCCCNC(=O)N(CCN1[C@@H]2CC[C@H]1C[C@@H](c1cccc(C(N)=O)c1)C2)CC1CCCCC1 | 7 to 10.5 | 7 to 10.5 | < 40
26 | O=C([C@@H](O)c1ccccc1)N(CCN1[C@@H]2CC[C@H]1C[C@@H](c1cccc(O)c1)C2)CC1CCCCC1 | 7 to 10.5 | 7 to 10.5 | < 40

Row | Structure (SMILES) | pKi [1] | pKi [2] | Intrinsic activity [3] [%]
27 | O=C(C1CCCCC1)N(CCN1[C@@H]2CC[C@H]1C[C@@H](c1cccc(O)c1)C2)CC1CCCCC1 | 7 to 10.5 | 7 to 10.5 | < 40
28 | CC(CO)(CO)C(=O)N(CCN1[C@@H]2CC[C@H]1C[C@@H](c1cccc(C(N)=O)c1)C2)CC1CCC1.O=C(O)C(F)(F)F | 7 to 10.5 | 7 to 10.5 | < 40
29 | NC(=O)c1cccc([C@H]2C[C@H]3CC[C@@H](C2)N3CCN(CC2CCCC2)C(=O)[C@H]2CC[C@H](O)CC2)c1.O=C(O)C(F)(F)F | 7 to 10.5 | 7 to 10.5 | < 40
30 | NC(=O)c1cccc([C@H]2C[C@H]3CC[C@@H](C2)N3CCN(Cc2c(F)cccc2F)C(=O)[C@H]2CC[C@H](O)CC2)c1.O=C(O)C(F)(F)F | 7 to 10.5 | 7 to 10.5 | < 40
31 | CS(=O)(=O)CC(=O)N(CCN1[C@@H]2CC[C@H]1C[C@@H](c1cccc(C(N)=O)c1)C2)CC1CCC1.O=C(O)C(F)(F)F | 7 to 10.5 | 7 to 10.5 | < 40
32 | O=C([C@@H](O)Cc1ccccc1)N(CCN1[C@@H]2CC[C@H]1C[C@@H](c1cccc(O)c1)C2)CC1CCCCC1 | 7 to 10.5 | 7 to 10.5 | < 40
33 | O=C(CO)N(CCN1[C@@H]2CC[C@H]1C[C@@H](c1cccc(O)c1)C2)Cc1ccccc1 | 7 to 10.5 | 7 to 10.5 | 
34 | CS(=O)(=O)Nc1cccc([C@H]2C[C@H]3CC[C@@H](C2)N3CCN(CC2CCCCC2)C(=O)CO)c1 | 7 to 10.5 | 7 to 10.5 | < 40
35 | CN(C)S(=O)(=O)N(CCN1[C@@H]2CC[C@H]1C[C@@H](c1cccc(C(N)=O)c1)C2)Cc1ccc(C(F)(F)F)cc1.O=C(O)C(F)(F)F | 7 to 10.5 | 7 to 10.5 | < 40
36 | NC(=O)c1cccc([C@H]2C[C@H]3CC[C@@H](C2)N3CCN(Cc2c(F)cccc2F)C(=O)[C@H](O)CO)c1.O=C(O)C(F)(F)F | 7 to 10.5 | 7 to 10.5 | < 40
37 | O=C(CO)N(CCN1[C@@H]2CC[C@H]1C[C@@H](c1cccc(O)c1)C2)Cc1c(F)cccc1F | 7 to 10.5 | 7 to 10.5 | < 40
38 | COC(=O)CCC(=O)N(CCN1[C@@H]2CC[C@H]1C[C@@H](c1cccc(O)c1)C2)CC1CCCCC1 | 7 to 10.5 | 7 to 10.5 | < 40
39 | NC(=O)c1cccc([C@H]2C[C@H]3CC[C@@H](C2)N3CCN(Cc2ccccc2)C(=O)[C@@H](O)CO)c1.O=C(O)C(F)(F)F | 7 to 10.5 | 7 to 10.5 | < 40
40 | CS(=O)(=O)CC(=O)N(CCN1[C@@H]2CC[C@H]1C[C@@H](c1cccc(C(N)=O)c1)C2)CC1CCCCC1 | 7 to 10.5 | 7 to 10.5 | < 40
41 | NC(=O)c1cccc([C@H]2C[C@H]3CC[C@@H](C2)N3CCN(CC2CCCCC2)C(=O)CCC(=O)O)c1 | 7 to 10.5 | 7 to 10.5 | < 40
42 | CS(=O)(=O)CC(=O)N(CCc1ccc(O)cc1)CCN1[C@@H]2CC[C@H]1C[C@@H](c1cccc(C(N)=O)c1)C2.O=C(O)C(F)(F)F | 7 to 10.5 | 7 to 10.5 | < 40
43 | CS(=O)(=O)CC(=O)N(CCc1ccccc1)CCN1[C@@H]2CC[C@H]1C[C@@H](c1cccc(C(N)=O)c1)C2.O=C(O)C(F)(F)F | 7 to 10.5 | 7 to 10.5 | 
44 | O=C(C(O)CCc1ccccc1)N(CCN1[C@@H]2CC[C@H]1C[C@@H](c1cccc(O)c1)C2)CC1CCCCC1 (stereo partly specified) |  |  | < 40
45 | C[C@H](O)C(=O)N(CCCN1[C@@H]2CC[C@H]1C[C@@H](c1cccc(C(N)=O)c1)C2)Cc1ccccc1 |  |  | < 40
46 | COC(=O)CCC(=O)N(CCN1[C@@H]2CC[C@H]1C[C@@H](c1cccc(O)c1)C2)Cc1ccccc1 |  |  | < 40
47 | NC(=O)c1cccc([C@H]2C[C@H]3CC[C@@H](C2)N3CCN(CC2CCC(F)CC2)C(=O)CO)c1 (stereo partly specified) |  |  | < 40
48 | NC(=O)c1cccc([C@H]2C[C@H]3CC[C@@H](C2)N3CCN(CC2CCC(F)CC2)C(=O)[C@@H](O)CO)c1 (stereo partly specified) |  |  | < 40
49 | CN(C)S(=O)(=O)N(CCN1[C@@H]2CC[C@H]1C[C@@H](c1cccc(C(N)=O)c1)C2)Cc1ccc(CF)cc1 |  |  | < 40
50 | O=C(O)CCC(=O)N(CCN1[C@@H]2CC[C@H]1C[C@@H](c1cccc(O)c1)C2)CC12CC3CC(CC(C3)C1)C2 |  |  | < 40
51 | NC(=O)c1cccc([C@H]2C[C@H]3CC[C@@H](C2)N3CCN(CC2CCC(C(F)(F)F)CC2)C(=O)[C@@H](O)CO)c1 (stereo partly specified) |  |  | < 40
52 | CC1CCC(CN(CCN2[C@@H]3CC[C@H]2C[C@@H](c2cccc(C(N)=O)c2)C3)C(=O)[C@@H](O)CO)CC1 (stereo partly specified) |  |  | < 40
